The values that follow come from patent publication US7858620B2, “Cyanoisoquinoline” (H. Lundbeck A/S, priority 2007, dated 2010).

The test system of assay [1] is catalepsy in rats. As to conditions: cited from earlier work.
The test system of assay [2] is PCP induced hyperactivity in rats. As to conditions: cited from earlier work.
The test system of assay [3] is amphetamine induced hyperactivity. Conditions: rat, in vivo; cited from earlier work.
In assay [4] the target is T1, PDE10A enzyme (Homo sapiens, UniProt Q9Y233).
T1 construct: made in house; host or cells: E. coli BL21(DE3)
T1 sequence (Q9Y233 716-1055): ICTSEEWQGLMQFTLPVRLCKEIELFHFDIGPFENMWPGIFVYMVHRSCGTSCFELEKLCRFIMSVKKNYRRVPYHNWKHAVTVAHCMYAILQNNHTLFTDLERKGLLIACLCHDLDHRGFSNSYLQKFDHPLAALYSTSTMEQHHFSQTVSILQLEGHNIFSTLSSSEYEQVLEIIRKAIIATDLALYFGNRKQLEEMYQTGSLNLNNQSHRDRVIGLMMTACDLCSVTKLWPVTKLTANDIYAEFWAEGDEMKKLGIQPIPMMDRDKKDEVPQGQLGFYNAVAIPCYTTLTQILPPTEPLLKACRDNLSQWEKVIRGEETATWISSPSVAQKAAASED
The assay is described as follows: PDE10A inhibition assay, SPA. In kind it is biochemical. As to conditions: column head 2,1334003; unit inferred, nM. On the procedure:
Active PDE10A enzyme is prepared in a number of ways for use in PDE assays (Loughney, K. et al. Gene 1999, 234, 109-117; Fujishige, K. et al. Eur J Biochem. 1999, 266, 1118-1127 and Soderling, S. et al. Proc. Natl. Acad. Sci. 1999, 96, 7071-7076). PDE10A can be expressed as full-length proteins or as truncated proteins, as long as they express the catalytic domain. PDE10A can be prepared in different cell types, for example insect cells or E. coli. An example of a method to obtain catalytically active PDE10A is as follows: The catalytic domain of human PDE10A (amino acids 440-779 from the sequence with accession number NP 006652) is amplified from total human brain total RNA by standard RT-PCR and is cloned into the BamH1 and Xho1 sites of the pET28a vector (Novagen). Expression in coli is performed according to standard protocols. Briefly, the expression plasmids are transformed into the BL21(DE3) E. coli strain, and 50 mL cultures inoculated with the cells allowed to grow to an OD600 of 0.4-0.6 before protein expression is induced with 0.5 mM IPTG. Following induction, the cells are incubated overnight at room temperature, after which the cells are collected by centrifugation. Cells expressing PDE10A are resuspended in 12 mL (50 mM TRIS-HCl-pH8.0, 1 mM MgCl2 and protease inhibitors). The cells are lysed by sonication, and after all cells are lysed, TritonX100 is added according to Novagen protocols.
PDE10A and Pde3A assays can for example be performed as follows: PDE10A and Pde3A assays are performed in 60 uL samples containing a fixed amount of the relevant PDE enzyme (sufficient to convert 20-25% of the cyclic nucleotide substrate), a buffer (50 mM HEPES7.6; 10 mM MgCl2; 0.02% Tween20), 0.1 mg/ml BSA, 225 pCi of ^3H-labelled cyclic nucleotide substrate, tritium labeled cAMP to a final concentration of 5 nM and varying amounts of inhibitors. Reactions are initiated by addition of the cyclic nucleotide substrate, and reactions are allowed to proceed for one hr at room temperature before being terminated through mixing with 15 uL 8 mg/mL yttrium silicate SPA beads (Amersham). The beads are allowed to settle for one hr in the dark before the plates are counted in a Wallac 1450 Microbeta counter. The measured signal can be converted to activity relative to an uninhibited control (100%) and IC50 values can be calculated using the Xlfit extension to EXCEL.

Turning to `COc1ccc(Cc2nccc3cc(OC)c(OC)cc23)cc1OC` [Papaverin], the “catalepsy on its own” value in assay [1] (alone) is on record as “did not cause catalepsy on its own”. Also, the “effect on cataleptic effect of haloperidol” value in assay [1] (with D2 receptor antagonist haloperidol) is recorded as “potentiated the cataleptic effect”. Also, the “hyperactivity induced by PCP” value in assay [2] was “reduced hyperactivity”. Also, the “reduction of amphetamine induced hyperactivity” value in assay [3] was “insignificant”.

In assay [4], `COc1cc2c(C#N)cnc(N3CCNC(c4cc(Cl)ccc4Cl)C3)c2cc1OC` (stereo not shown) [Compound 14, 1-[3-(2,5-Dichloro-phenyl)-piperazin-1-yl]-6,7-dimethoxy-isoquinoline-4-carbonitrile] returned an IC50 of 650 nM.

As for `COc1cc2c(C#N)cnc(N3CCOC(c4ccccc4Cl)C3)c2cc1OC` (stereo not shown) [Compound 21, 1-[2-(2-Chloro-phenyl)-morpholin-4-yl]-6,7-dimethoxy-isoquinoline-4-carbonitrile], the IC50 in assay [4] amounted to 530 nM.

Regarding `COc1cc2c(C#N)cnc(N3CCNC(c4cc(C)c(OC)c(C)c4)C3)c2cc1OC` (stereo not shown) [Compound 65, 6,7-Dimethoxy-1-[3-(4-methoxy-3,5-dimethyl-phenyl)-piperazin-1-yl]-isoquinoline-4-carbonitrile], the IC50 in assay [4] was 1700 nM.

The compound `COc1ccc(C2CN(c3nc(C)c(C#N)c4cc(OC)c(OC)cc34)CCN2)cc1` (stereo not shown) [Compound 32, 6,7-Dimethoxy-1-[3-(4-methoxy-phenyl)-piperazin-1-yl]-3-methyl-isoquinoline-4-carbonitrile] had an IC50 in assay [4] of 290 nM.

In assay [4], `COc1cc2c(C#N)cnc(N3CCOC(c4ccc(Cl)cc4)C3)c2cc1OC` (stereo not shown) [Compound 20, 1-[2-(4-Chloro-phenyl)-morpholin-4-yl]-6,7-dimethoxy-isoquinoline-4-carbonitrile] returned an IC50 of 800 nM.

Regarding `COc1cc2c(C#N)cnc(N3CCNC(c4cc(F)c(Cl)cc4Cl)C3)c2cc1OC` (stereo not shown) [Compound 17, 1-[3-(2,4-Dichloro-5-fluoro-phenyl)-piperazin-1-yl]-6,7-dimethoxy-isoquinoline-4-carbonitrile], in assay [4], the concentration for half-maximal inhibition (IC50) was 1000 nM.

With `COc1ccc(C2CN(c3ncc(C#N)c4cc(OC)c(OC)cc34)CCO2)cc1` (stereo not shown) [Compound 18, 6,7-Dimethoxy-1-[2-(4-methoxy-phenyl)-morpholin-4-yl]-isoquinoline-4-carbonitrile], 97 nM corresponded to half-maximal inhibition in assay [4] (IC50).

`COc1ccc(OC)c(C2CN(c3ncc(C#N)c4cc(OC)c(OC)cc34)CCN2)c1` (stereo not shown) [Compound 12, 1-[3-(2,5-Dimethoxy-phenyl)-piperazin-1-yl]-6,7-dimethoxy-isoquinoline-4-carbonitrile] came in with an IC50 in assay [4] of 42 nM.

`COc1cc2c(C#N)cnc(N3CCN[C@@H](c4ccccc4)C3)c2cc1OC` [Compound 44, 6,7-Dimethoxy-1-((S)-3-phenyl-piperazin-1-yl)-isoquinoline-4-carbonitrile] returned an IC50 in assay [4] of 410 nM.

`COc1cc2c(C#N)cnc(N3CCNC(c4cccc([N+](=O)[O-])c4)C3)c2cc1OC` (stereo not shown) [Compound 9, 6,7-Dimethoxy-1-[3-(3-nitro-phenyl)-piperazin-1-yl]-isoquinoline-4-carbonitrile] showed an IC50 in assay [4] of 120 nM.

`COc1cc2c(C#N)cnc(N3CCNC(c4ccc(OC(C)C)cc4)C3)c2cc1OC` (stereo not shown) [Compound 57, 1-[3-(4-Isopropoxy-phenyl)-piperazin-1-yl]-6,7-dimethoxy-isoquinoline-4-carbonitrile] yielded an IC50 in assay [4] of 530 nM.

Compound `COc1ccc(C2CN(c3ncc(C#N)c4cc(OC)c(OC)cc34)CCN2)c(OC)c1` (stereo not shown) [Compound 58, 1-[3-(2,4-Dimethoxy-phenyl)-piperazin-1-yl]-6,7-dimethoxy-isoquinoline-4-carbonitrile] registered an IC50 in assay [4] of 850 nM.
